Data on 4 compounds can be found in patent US11330821B2, “Herbicidal compounds” (Syngenta Participations AG, priority 2015, dated 2022).

Assay type in all cases: in vivo
What all share (conditions): post-emergence spray, evaluated after 13 days

Test [1] concerns Ipomoea hederacea (IPOHE). In words: Post-emergence efficacy, Ipomoea hederacea. Here is the method:
(§1) B1 Post-Emergence Efficacy
(§2) Seeds of a variety of test species are shown in standard soil in pots:—Solanum nigrum (SOLNI), Amaranthus retroflexus (AMARE), Setaria faberi (SETFA), Echinochloa crus-galli (ECHCG), Ipomoea hederacea (IPOHE), Lolium perenne (LOLPE). After 8 days cultivation (post-emergence) under controlled conditions in a glasshouse (at 24/16° C., day/night; 14 hours light; 65% humidity), the plants are sprayed with an aqueous spray solution derived from the formulation of the technical active ingredient in acetone/water (50:50) solution containing 0.5% Tween 20 (polyoxyethylene sorbitan monolaurate, CAS RN 9005-64-5). Compounds are applied at 1000 and 62.5 g/ha. The test plants are then grown in a glasshouse under controlled conditions in a glasshouse (at 24/16° C., day/night; 14 hours light; 65% humidity) and watered twice daily. After 13 days, the test is evaluated for the percentage damage caused to the plant. The biological activities are assessed on a five point scale (5=80-100%; 4=60-79%; 3=40-59%; 2=20-39%; 1=0-19%).

A further test relates to Lolium perenne (LOLPE). In words: Post-emergence efficacy, Lolium perenne. Here is the method: as §1, §2
In test [2] the test system is Echinochloa crus-galli (ECHCG). In words: Post-emergence efficacy, Echinochloa crus-galli. Here is the method:
as §1, §2

In another test the test system is Setaria faberi (SETFA). In words: Post-emergence efficacy, Setaria faberi. The method, then: as §1, §2
In test [3] the test system is Amaranthus retroflexus (AMARE). Nature of the test: Post-emergence efficacy, Amaranthus retroflexus. The method, then: as §1, §2
Another test concerns Solanum nigrum (SOLNI). In words: Post-emergence efficacy, Solanum nigrum. The method, then:
as §1, §2

For the compound `Cc1nn(C)c(=O)c(-c2c(Cl)ccc(Cl)c2OCc2cccnc2)c1O` [Compound 1.02], the entries for the “IPOHE percentage damage caused to the plant (five point scale)” value (from here on “IPOHE percentage damage caused”) in test [1] (62.5 g/ha) and in test [1] (1000 g/ha) were 3 (3=40-59%) and 5 (5=80-100%), respectively. Moreover, the results for the “LOLPE percentage damage caused to the plant (five point scale)” value (from here on “LOLPE percentage damage caused”) in the test on Lolium perenne (LOLPE) (62.5 g/ha) and with Lolium perenne (LOLPE) (1000 g/ha) were 2 (2=20-39%) and 4 (4=60-79%), respectively. Further, the “ECHCG percentage damage caused to the plant (five point scale)” value (from here on “ECHCG percentage damage caused”) in test [2] (62.5 g/ha) was 3 (3=40-59%); in test [2] (1000 g/ha) it was 4 (4=60-79%). Besides, the “SETFA percentage damage caused to the plant (five point scale)” value (from here on “SETFA percentage damage caused”) was 3 (3=40-59%) in the test with Setaria faberi (SETFA) (62.5 g/ha) and 5 (5=80-100%) with Setaria faberi (SETFA) (1000 g/ha). The “AMARE percentage damage caused to the plant (five point scale)” value (from here on “AMARE percentage damage caused”) in test [3] (62.5 g/ha) and in test [3] (1000 g/ha) was 4 (4=60-79%) in each case. The “SOLNI percentage damage caused to the plant (five point scale)” value (from here on “SOLNI percentage damage caused”) is on record as 4 (4=60-79%) with Solanum nigrum (SOLNI) (62.5 g/ha) and 5 (5=80-100%) in the test with Solanum nigrum (SOLNI) (1000 g/ha).
As for `Cc1nn(C)c(=O)c(-c2c(Cl)ccc(Cl)c2OCc2ccncc2)c1O` [Compound 1.03], the “IPOHE percentage damage caused” value in test [1] (62.5 g/ha) and in test [1] (1000 g/ha) was 4 (4=60-79%) in each case. For the same compound, the “LOLPE percentage damage caused” value is 1 (1=0-19%) in the test on Lolium perenne (LOLPE) (62.5 g/ha) and 4 (4=60-79%) with Lolium perenne (LOLPE) (1000 g/ha). The “ECHCG percentage damage caused” value in test [2] (62.5 g/ha) is reported as 2 (2=20-39%); in test [2] (1000 g/ha) it was 5 (5=80-100%). Besides, the results for the “SETFA percentage damage caused” value with Setaria faberi (SETFA) (62.5 g/ha) and with Setaria faberi (SETFA) (1000 g/ha) were 1 (1=0-19%) and 5 (5=80-100%), respectively. For the same compound, the “AMARE percentage damage caused” value in test [3] (62.5 g/ha) was 1 (1=0-19%); in test [3] (1000 g/ha), 4 (4=60-79%). Also, the “SOLNI percentage damage caused” value with Solanum nigrum (SOLNI) (62.5 g/ha) is reported as 4 (4=60-79%); with Solanum nigrum (SOLNI) (1000 g/ha), 5 (5=80-100%).
Take `Cc1nn(C)c(=O)c(-c2c(Cl)ccc(Cl)c2OCc2nccs2)c1O` [Compound 1.04]: the “IPOHE percentage damage caused” value in test [1] (62.5 g/ha) and in test [1] (1000 g/ha) was 5 (5=80-100%) throughout. Also, the “LOLPE percentage damage caused” value in the test with Lolium perenne (LOLPE) (62.5 g/ha) was 3 (3=40-59%); in the test with Lolium perenne (LOLPE) (1000 g/ha), 5 (5=80-100%). The “ECHCG percentage damage caused” value in test [2] (62.5 g/ha) is recorded as 4 (4=60-79%); in test [2] (1000 g/ha) it was 5 (5=80-100%). Besides, the “SETFA percentage damage caused” value with Setaria faberi (SETFA) (62.5 g/ha) and with Setaria faberi (SETFA) (1000 g/ha) was 5 (5=80-100%) throughout. In addition, the “AMARE percentage damage caused” value in test [3] (62.5 g/ha) and in test [3] (1000 g/ha) was 5 (5=80-100%) each time. Further, the “SOLNI percentage damage caused” value with Solanum nigrum (SOLNI) (62.5 g/ha) and with Solanum nigrum (SOLNI) (1000 g/ha) was 5 (5=80-100%) each time.
Turning to `Cc1nn(C)c(=O)c(-c2c(Cl)ccc(Cl)c2OCc2cncs2)c1O` [Compound 1.06], the “IPOHE percentage damage caused” value in test [1] (62.5 g/ha) and in test [1] (1000 g/ha) was 5 (5=80-100%) each time. Moreover, the “LOLPE percentage damage caused” value with Lolium perenne (LOLPE) (62.5 g/ha) is 4 (4=60-79%); in the test with Lolium perenne (LOLPE) (1000 g/ha) it was 5 (5=80-100%). The “ECHCG percentage damage caused” value in test [2] (62.5 g/ha) and in test [2] (1000 g/ha) was 5 (5=80-100%) in each case. For the same compound, the “SETFA percentage damage caused” value in the test with Setaria faberi (SETFA) (62.5 g/ha) and in the test with Setaria faberi (SETFA) (1000 g/ha) was 5 (5=80-100%) throughout. The “AMARE percentage damage caused” value in test [3] (62.5 g/ha) is 4 (4=60-79%); in test [3] (1000 g/ha), 5 (5=80-100%). The “SOLNI percentage damage caused” value with Solanum nigrum (SOLNI) (62.5 g/ha) and in the test with Solanum nigrum (SOLNI) (1000 g/ha) was 5 (5=80-100%) throughout.
